Columns and labels:
[1] = system: patients with symptomatic MDD; assay: Safety and tolerability in Phase 1B study; assay type: in vivo, human
Procedure: (§1) A double-blind, placebo-controlled, multiple-ascending-dose study employing the compound of formula (1) was performed in patients with symptomatic MDD. Twenty-four subjects were recruited, with their diagnosis and illness severity confirmed through an independent, remote SAFER interview (Targum, S. D., et al., CNS Neurosci. Ther. (2008) 14:2-9) from the Massachusetts General Hospital (MGH) Clinical Trials Network and Institute (CTNI) raters. Each patient underwent a screening for eligibility (Day −37 to Day −6 or −3) and eligible patients were admitted into the unit on Day −5 to complete their wash-out and be reconfirmed for eligibility and for baseline assessments. The patients received daily dosing of formula (1) or placebo for 28 days starting on Day 1 and were followed for safety, pharmacokinetics (PK) and pharmacodynamics (PD) until discharge. At the conclusion of in-house dosing (Day 28), patients remained in the unit for up to 3 additional days, at the psychiatrist's discretion. On Day 35 (±3), Day 42 (±3), Day 49 (±3) and Day 70 (±3) outpatient follow-up visits took place. Patients returned to the unit for extensive follow-up on Day 56 (±3) and Day 84 (±3) (End-of-study).
The subjects were randomized into four groups of 6 patients each to receive 40 mg of formula (1) per dose administered orally in gelatin capsules once daily, twice daily or three times daily to provide 40 or 80 or 120 mg daily of formula (1) or placebo for 28 days. Each cohort included at least 3 female subjects. In this example, qEEG was used to characterize pharmacodynamic effects.
In addition to safety, pharmacokinetic and the behavioral ratings scales described in Example 2, qEEG measurements were obtained 6 hours post-dose on Days 14 and 28 for 20 minutes at rest. EEGs were recorded using 19-standard International 10/20 System scalp locations plus electromyography (EMG) and eye movement monitoring. Digital EEGs recorded using Cadwell Laboratories instrumentation, were reviewed to identify the presence of physiological and instrumentation prior to analyses. […]

[2] = system: patients with symptomatic MDD; assay: Overall efficacy assessment in Phase 1B study; assay type: in vivo, human
Procedure: as §1, with “On Day 35 (±3), Day 42 (±3), Day 49 (±3) and Day 70 (±3) outpatient follow-up visits took place. Patients returned to the unit for extensive follow-up on Day 56 (±3) and Day 84 (±3) (End-of-study).” left out
In this example, the results of the study of Example 1 were evaluated by the efficacy assessments that included the Montgomery-Asberg Depression Rating Scale (MADRS), the Clinician Global Impression-Improvement (CGI-I), the Symptoms of Depression Questionnaire (SDQ) and the Cognitive and Physical Functioning Questionnaire (CPFQ). […]

## CC(C)CCNc1ncccc1C(=O)N1CCN(Cc2ccccc2)CC1 [formula (1)]
[1]; 40-120 mg/day oral for 28 days
  Serious adverse events: No serious adverse events occurred
  Tolerability: well tolerated
[1]; pre vs post dose
  Safety EEG recordings by visual inspection: no new findings
[2]; Day 28, two lower doses (40 mg/day and 80 mg/day)
  Depressive and cognitive symptoms across all measures: clinically meaningful reduction in depressive and cognitive symptoms across all measures
[2]; highest dose (120 mg/day)
  Effect on condition of patients, further analysis: effective in improving the condition of these patients

Reference: US9572807B2, “Protocols for treatment of major depressive disorder (MDD)” (NEURALSTEM, INC., priority 2014, dated 2017)
